Experimental data as given in patent publication US20090118276A1, “THIENOPYRIMIDINES, THIENOPYRIDINES, AND PYRROLOPYRIMIDINES AS B-RAF INHIBITORS” (priority 2007, published 2009).

Target: T1, Flag/GST-tagged recombinant human B-Raf (Homo sapiens, UniProt P15056)
T1 construct: Flag; GST; made in house; host or cells: Sf9 insect cells (B-Raf); E. coli (MEK1-GST)
Assay: B-Raf Kinase to MEK1 ELISA
Format: biochemical
Details: not given
Description: B-Raf Kinase to MEK1 ELISA
B-Raf1 Kinase Assay Procedure: B-Raf-1 is used to phosphorylate GST-MEK1.
B-Raf Assay Stock Solutions:
1. Assay Dilution Buffer (ADB): 20 mM MOPS, pH 7.2, 25 mM β-glycerol phosphate, 5 mM EGTA, 1 mM sodium orthovanadate, 1 mM dithiothreitol, 0.01% Triton X-100.
2. Magnesium/ATP Cocktail: ADB solution (minus Triton X-100) plus 200 μM cold ATP and 40 mM magnesium chloride.
4. Active Kinase: Active B-Raf: used at 0.2 nM per assay point.
8. Anti pMEK Ab (Upstate)
9. Anti-rabbit Ab/Europium conjugate (Wallac)
1. Add 25 μl of ADB containing B-Raf and Mek per assay (i.e. per well of a 96 well plate)
2. Add 25 μl of 0.2 mM ATP and 40 mM magnesium chloride in Magnesium/ATP Cocktail.
3. Incubate for 45 minutes at RT with occasional shaking.
4. Transfer this mixture to an anti-GST Ab coated 96 well plate (Nunc Immunosorb plates coated o/n with a-GST. Plate freshly washed 3× with TBS-T before use.
5. Incubate o/n at 30° C. in cold room.
6. Wash 3× with TBST, add Anti-Phospho MEK1 (1:1000, dilution depends upon lot)
7. Incubate for 60 minutes at RT in a shaking incubator
8. Wash 3× with TBST, add Anti-rabbit Ab/Europium conjugate (Wallac) (1:500, dilution depends upon lot)
9. Incubate for 60 minutes at RT on a platform shaker.
10. Wash plate 3× with TBS-T
11. Add 100 μl of Wallac Delfia Enhancement Solution and shake for 10 minutes.
12. Read plates in Wallac Victor model Plate Reader.
13. Collect data analyze in Excel for single point and IC50 determinations.
The % inhibition was determined for each compound concentration.

T1 sequence (P15056 whole entry): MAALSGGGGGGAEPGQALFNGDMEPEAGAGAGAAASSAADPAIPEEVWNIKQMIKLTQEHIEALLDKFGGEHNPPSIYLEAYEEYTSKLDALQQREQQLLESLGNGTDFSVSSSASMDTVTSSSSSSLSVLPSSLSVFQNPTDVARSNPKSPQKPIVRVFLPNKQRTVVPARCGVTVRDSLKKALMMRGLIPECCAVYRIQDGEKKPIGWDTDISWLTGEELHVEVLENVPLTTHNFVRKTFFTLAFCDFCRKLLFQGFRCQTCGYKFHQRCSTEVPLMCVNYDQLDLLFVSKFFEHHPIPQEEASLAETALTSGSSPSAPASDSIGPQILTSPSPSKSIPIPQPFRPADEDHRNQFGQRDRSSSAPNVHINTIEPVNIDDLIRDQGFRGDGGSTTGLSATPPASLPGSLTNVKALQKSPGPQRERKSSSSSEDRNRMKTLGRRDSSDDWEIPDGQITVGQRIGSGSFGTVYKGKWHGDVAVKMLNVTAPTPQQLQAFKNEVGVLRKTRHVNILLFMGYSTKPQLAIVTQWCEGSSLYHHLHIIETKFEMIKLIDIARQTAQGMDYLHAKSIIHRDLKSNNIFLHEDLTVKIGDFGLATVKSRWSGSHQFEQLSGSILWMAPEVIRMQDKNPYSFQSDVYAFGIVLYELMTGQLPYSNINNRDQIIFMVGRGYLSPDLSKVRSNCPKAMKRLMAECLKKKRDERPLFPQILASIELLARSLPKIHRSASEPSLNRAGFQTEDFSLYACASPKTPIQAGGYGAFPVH

**Q.** With O=C(Nc1cccc(-c2ncnc3sc(-c4ccncc4)cc23)c1)c1ccc(F)c(C(F)(F)F)c1 [Compound 38, 4-fluoro-N-[3-(6-pyridin-4-ylthieno[2,3-d]pyrimidin-4-yl)phenyl]-3-(trifluoromethyl)benzamide] as the molecule, how does the IC50 read?
**A.** The IC50 was 0.3 µM.

**Q.** For Cc1ccc(NC(=O)Nc2cccc(-c3ncnc4sc(-c5ccncc5)cc34)c2)cc1C [Compound 44, N-(3,4-dimethylphenyl)-N′-[3-(6-pyridin-4-ylthieno[2,3-d]pyrimidin-4-yl)phenyl]urea], which IC50 is on record?
**A.** The IC50 was 1.53 µM.

**Q.** With O=C(Nc1cccc(-c2ncnc3sc(-c4ccncc4)cc23)c1)Nc1ccc(F)c(C(F)(F)F)c1 [Compound 36, N-[4-fluoro-3-(trifluoromethyl)phenyl]-N′-[3-(6-pyridin-4-ylthieno[2,3-d]pyrimidin-4-yl)phenyl]urea] as the molecule, how does the IC50 read?
**A.** Its IC50 is 2.34 µM.

**Q.** O=C(Nc1ccc(Cl)cc1)Nc1cccc(-c2ncnc3sc(-c4ccncc4)cc23)c1 [Compound 46, N-(4-chlorophenyl)-N′-[3-(6-pyridin-4-ylthieno[2,3-d]pyrimidin-4-yl)phenyl]urea] was tested. Which IC50 did it give?
**A.** Its IC50 is 1.23 µM.

**Q.** With O=C(Nc1cccc(-c2ncnc3sc(-c4ccncc4)cc23)c1)c1ccc(Cl)c(C(F)(F)F)c1 [Compound 40, 4-chloro-N-[3-(6-pyridin-4-ylthieno[2,3-d]pyrimidin-4-yl)phenyl]-3-(trifluoromethyl)benzamide] as the molecule, how does the IC50 read?
**A.** The IC50 was 3.53 µM.

**Q.** For COc1ccc(-n2ccc3c(-c4cccc(NC(=O)c5cccc(C(F)(F)F)c5)c4)ncnc32)cc1 [Compound 103, N-{3-[7-(4-methoxyphenyl)-7H-pyrrolo[2,3-d]pyrimidin-4-yl]phenyl}-3-(trifluoromethyl)benzamide], which IC50 is on record?
**A.** The IC50 was 5.71 µM.

**Q.** For COc1ccc(C(=O)Nc2cccc(-c3ncnc4sc(-c5ccncc5)cc34)c2)cc1C(F)(F)F [Compound 35, 4-methoxy-N-[3-(6-pyridin-4-ylthieno[2,3-d]pyrimidin-4-yl)phenyl]-3-(trifluoromethyl)benzamide], which IC50 is on record?
**A.** Its IC50 is 3.46 µM.

**Q.** Cc1ccc(C(=O)Nc2cccc(-c3ncnc4sc(-c5ccncc5)cc34)c2)cc1C(F)(F)F [Compound 37, 4-methyl-N-[3-(6-pyridin-4-ylthieno[2,3-d]pyrimidin-4-yl)phenyl]-3-(trifluoromethyl)benzamide] was tested. Which IC50 did it give?
**A.** The IC50 was 2.61 µM.

**Q.** For O=C(Nc1cccc(-c2ncnc3sc(-c4ccnc(NCCN5CCOCC5)c4)cc23)c1)c1cccc(C(F)(F)F)c1 [Compound 86, N-[3-(6-{2-[(2-morpholin-4-ylethyl)amino]pyridin-4-yl}thieno[2,3-d]pyrimidin-4-yl)phenyl]-3-(trifluoromethyl)benzamide], which IC50 is on record?
**A.** Its IC50 is 0.144 µM.

**Q.** With COc1ccc(C(=O)Nc2cccc(-c3c(C#N)cnc4cc(-c5ccncc5)sc34)c2)cc1C(F)(F)F [Compound 7, N-[3-(6-cyano-2-pyridin-4-ylthieno[3,2-b]pyridin-7-yl)phenyl]-4-methoxy-3-(trifluoromethyl)benzamide] as the molecule, how does the IC50 read?
**A.** Its IC50 is 9.6 µM.

**Q.** For O=C(Nc1cccc(-c2ncnc3c2ccn3-c2ccc(CN3CCNCC3)cc2)c1)c1cccc(C(F)(F)F)c1 [Compound 112, N-(3-{7-[4-(piperazin-1-ylmethyl)phenyl]-7H-pyrrolo[2,3-d]pyrimidin-4-yl}phenyl)-3-(trifluoromethyl)benzamide], which IC50 is on record?
**A.** The IC50 was 0.191 µM.

**Q.** For O=C(Nc1cccc(-c2ncnc3sc(-c4ccncc4)cc23)c1)Nc1cccc(C(F)(F)F)c1 [Compound 41, N-[3-(6-pyridin-4-ylthieno[2,3-d]pyrimidin-4-yl)phenyl]-N′-[3-(trifluoromethyl)phenyl]urea], which IC50 is on record?
**A.** The IC50 was 1.79 µM.

**Q.** Which IC50 does the source give for O=C(Nc1cccc(-c2ncnc3c2cc(-c2ccncc2)n3CCN2CCCC2)c1)c1cccc(C(F)(F)F)c1 [Compound 108, N-{3-[6-pyridin-4-yl-7-(2-pyrrolidin-1-ylethyl)-7H-pyrrolo[2,3-d]pyrimidin-4-yl]phenyl}-3-(trifluoromethyl)benzamide] here?
**A.** The IC50 was 0.0685 µM.

**Q.** For O=C(Nc1cccc(-c2ncnc3sc(-c4ccncc4)cc23)c1)Nc1ccc(Cl)c(C(F)(F)F)c1 [Compound 39, N-[4-chloro-3-(trifluoromethyl)phenyl]-N′-[3-(6-pyridin-4-ylthieno[2,3-d]pyrimidin-4-yl)phenyl]urea], which IC50 is on record?
**A.** Its IC50 is 1.4 µM.

**Q.** O=C(Nc1cccc(-c2ncnc3sc(-c4ccncc4)cc23)c1)c1cccc(C(F)(F)F)c1 [Compound 42, N-[3-(6-pyridin-4-ylthieno[2,3-d]pyrimidin-4-yl)phenyl]-3-(trifluoromethyl)benzamide] was tested. Which IC50 did it give?
**A.** The IC50 was 0.08 µM.

**Q.** For CN(C)c1ccc(-n2ccc3c(-c4cccc(NC(=O)c5cccc(C(F)(F)F)c5)c4)ncnc32)cc1 [Compound 107, N-(3-{7-[4-(dimethylamino)phenyl]-7H-pyrrolo[2,3-d]pyrimidin-4-yl}phenyl)-3-(trifluoromethyl)benzamide], which IC50 is on record?
**A.** The IC50 was 6.57 µM.

**Q.** O=C(Nc1cccc(-c2ncnc3c2ccn3Cc2ccncc2)c1)c1cccc(C(F)(F)F)c1 [Compound 98, N-{3-[7-(pyridin-4-ylmethyl)-7H-pyrrolo[2,3-d]pyrimidin-4-yl]phenyl}-3-(trifluoromethyl)benzamide] was tested. Which IC50 did it give?
**A.** Its IC50 is 1.02 µM.

**Q.** With O=C(Nc1cccc(Cl)c1)Nc1cccc(-c2ncnc3sc(-c4ccncc4)cc23)c1 [Compound 45, N-(3-chlorophenyl)-N′-[3-(6-pyridin-4-ylthieno[2,3-d]pyrimidin-4-yl)phenyl]urea] as the molecule, how does the IC50 read?
**A.** The IC50 was 8.75 µM.

**Q.** For CN(C)CCCn1c(-c2ccncc2)cc2c(-c3cccc(NC(=O)c4cccc(C(F)(F)F)c4)c3)ncnc21 [Compound 109, N-(3-{7-[3-(dimethylamino)propyl]-6-pyridin-4-yl-7H-pyrrolo[2,3-d]pyrimidin-4-yl}phenyl)-3-(trifluoromethyl)benzamide], which IC50 is on record?
**A.** The IC50 was 0.0665 µM.

Same assay, conditions: phosphorylation of GST-MEK1 by B-Raf (0.2 nM), phospho-MEK1 antibody/Europium readout; compound concentrations from 1 μM to 3 nM or 0.1 μM to 300 pm in half log dilutions; read-out: IC50

**Q.** How did the IC50 turn out when CNC(=O)c1cc(-c2cc3c(-c4cccc(NC(=O)c5cccc(C(F)(F)F)c5)c4)ncnc3s2)ccn1 [Compound 85, N-methyl-4-[4-(3-{[3-(trifluoromethyl)benzoyl]amino}phenyl)thieno[2,3-d]pyrimidin-6-yl]pyridine-2-carboxamide] was run?
**A.** The IC50 was 0.73 µM.

**Q.** Which IC50 does the source give for O=C(Nc1cccc(-c2ncnc3[nH]c(-c4ccncc4)cc23)c1)c1cccc(C(F)(F)F)c1 [Compound 101, N-[3-(6-pyridin-4-yl-7H-pyrrolo[2,3-d]pyrimidin-4-yl)phenyl]-3-(trifluoromethyl)benzamide] here?
**A.** Its IC50 is 0.0345 µM.

**Q.** With N#Cc1cnc2cc(-c3ccncc3)sc2c1-c1cccc(NC(=O)c2cccc(C(F)(F)F)c2)c1 [Compound 5, N-[3-(6-cyano-2-pyridin-4-ylthieno[3,2-b]pyridin-7-yl)phenyl]-3-(trifluoromethyl)benzamide] as the molecule, how does the IC50 read?
**A.** Its IC50 is 5.94 µM.

**Q.** Which IC50 does the source give for O=C(Nc1cccc(-c2ncnc3sc(C4=CCNCC4)cc23)c1)c1cccc(C(F)(F)F)c1 [Compound 67, N-{3-[6-(1,2,3,6-tetrahydropyridin-4-yl)thieno[2,3-d]pyrimidin-4-yl]phenyl}-3-(trifluoromethyl)benzamide] here?
**A.** Its IC50 is 2.5 µM.

**Q.** Which IC50 does the source give for N#Cc1ccc(-c2cc3c(-c4cccc(NC(=O)c5cccc(C(F)(F)F)c5)c4)ncnc3s2)cc1 [Compound 77, N-{3-[6-(4-cyanophenyl)thieno[2,3-d]pyrimidin-4-yl]phenyl}-3-(trifluoromethyl)benzamide] here?
**A.** Its IC50 is 1.23 µM.

**Q.** With O=C(Nc1cccc(-c2ncnc3sc(-c4ccc(Cl)cc4)cc23)c1)c1cccc(C(F)(F)F)c1 [Compound 79, N-{3-[6-(4-chlorophenyl)thieno[2,3-d]pyrimidin-4-yl]phenyl}-3-(trifluoromethyl)benzamide] as the molecule, how does the IC50 read?
**A.** The IC50 was 4.67 µM.

**Q.** O=C(Nc1cccc(-c2ncnc3sc(-c4ccnc(NCCCn5ccnc5)c4)cc23)c1)c1cccc(C(F)(F)F)c1 [Compound 87, N-{3-[6-(2-{[3-(1H-imidazol-1-yl)propyl]amino}pyridin-4-yl)thieno[2,3-d]pyrimidin-4-yl]phenyl}-3-(trifluoromethyl)benzamide] was tested. Which IC50 did it give?
**A.** Its IC50 is 0.158 µM.

**Q.** With CC(=O)c1ccc(-c2cc3c(-c4cccc(NC(=O)c5cccc(C(F)(F)F)c5)c4)ncnc3s2)cc1 [Compound 80, N-{3-[6-(4-acetylphenyl)thieno[2,3-d]pyrimidin-4-yl]phenyl}-3-(trifluoromethyl)benzamide] as the molecule, how does the IC50 read?
**A.** Its IC50 is 2.73 µM.

**Q.** With O=C(Nc1cccc(-c2ncnc3sc(-c4cccnc4)cc23)c1)c1cccc(C(F)(F)F)c1 [Compound 75, N-[3-(6-pyridin-3-ylthieno[2,3-d]pyrimidin-4-yl)phenyl]-3-(trifluoromethyl)benzamide] as the molecule, how does the IC50 read?
**A.** Its IC50 is 1.11 µM.

**Q.** How did the IC50 turn out when CC(=O)Nc1cccc(-c2cc3c(-c4cccc(NC(=O)c5cccc(C(F)(F)F)c5)c4)ncnc3s2)c1 [Compound 72, N-(3-{6-[3-(acetylamino)phenyl]thieno[2,3-d]pyrimidin-4-yl}phenyl)-3-(trifluoromethyl)benzamide] was run?
**A.** The IC50 was 2.07 µM.

**Q.** N#Cc1cc2c(-c3cccc(NC(=O)c4cccc(C(F)(F)F)c4)c3)ncnc2s1 [Compound 88, N-[3-(6-cyanothieno[2,3-d]pyrimidin-4-yl)phenyl]-3-(trifluoromethyl)benzamide] was tested. Which IC50 did it give?
**A.** Its IC50 is 5.98 µM.
